Experimental data as given in patent publication US20200190202A1, “Reprogramming of CD8 T Cells with CXCL12 Signaling Inhibitors” (priority 2017, published 2020).
Read-outs that look alike come from different tables or passages of the source.

Experiments:
40 L mouse mesothelioma = assay: Intraperitoneal malignant mesothelioma model, tumor growth and survival, 40 L; format: in vivo; conditions: 40 L model; compared to saline control
AE17 mouse mesothelioma = assay: Intraperitoneal malignant mesothelioma model, tumor growth and survival, AE17; format: in vivo; conditions: compared to saline control
[1] = tested on: T cells in spleens and tumors of 40 L tumor-bearing mice; assay: Immune profiling by flow cytometry, 40 L tumor-bearing mice; format: in vivo, mouse; conditions: for proportion of CD8+ T cells in total live cells: compared to saline control
[2] = tested on: T cells in spleens, lymph nodes and tumors of AE17 tumor-bearing mice; assay: Immune profiling by flow cytometry, AE17 tumor-bearing mice; format: in vivo, mouse; conditions: for proportion of CD8+ T cells in total live cells: compared to saline control
[3] = tested on: CD8+ T cells of 40 L tumor-bearing mice; assay: Ex-vivo restimulation with recombinant mesothelin and intracellular IFN-γ detection, 40 L mice; format: in vivo, mouse; conditions: splenic CD8+ T cells; 40 L model; compared to saline
[4] = tested on: CD8+ T cells of AE17 tumor-bearing mice; assay: Ex-vivo restimulation with recombinant mesothelin and intracellular IFN-γ detection, AE17 mice; format: in vivo, mouse; conditions: AE17 model, compared to saline
[5] = tested on: GFP-Foxp3 expressing CD4+ splenocytes (Treg cells); conditions: AMD3100 5 μg/ml, 24 hours
ovarian cancer = conditions: monotherapy in ovarian tumor-bearing mice; cited from earlier work
[6] = 0.01-0.02 mg/kg subcutaneously twice daily for 6 months; cited from earlier work
[7] = tumors, 40 L model, compared to saline
[8] = lymph nodes, AE17 model, compared to saline
[9] = tumors, AE17 model, compared to saline

c1cc(CN2CCCNCCNCCCNCC2)ccc1CN1CCCNCCNCCCNCC1 [AMD3100, plerixafor]
animal survival (40 L mouse mesothelioma): only modest benefit
animal survival (AE17 mouse mesothelioma): only modest benefit
proportion of PD-1-expressing CD8+ T cells ([1]; spleens, 40 L model, compared to saline): significantly fewer
proportion of CD8+ T cells in total live cells ([1]; spleens, 40 L model): did not increase
proportions of Treg cells ([1]; spleens, 40 L tumor-bearing mice): did not alter
IL-2+ CD40L+ cells among the Foxp3+ CD25− Treg population ([1]; tumors of 40 L mice): significantly more
ratio of CD25− cells to CD25+ cells within the Foxp3+ population ([1]; tumors of 40 L mice): significantly increased
proportion of PD-1-expressing CD8+ T cells [1, 7]: significantly fewer
proportions of Treg [1, 7]: significantly decreased
ratio of CD8+ T cells to Treg [1, 7]: increased
proportion of CD8+ T cells in total live cells ([1]; tumors, 40 L model): did not increase
IL-2+ CD40L+ cells among the Foxp3+ CD25− Treg population ([2]; lymph nodes of AE17 mice): significantly more
ratio of CD25− cells to CD25+ cells within the Foxp3+ population ([2]; lymph nodes, AE17 model): significantly increased
cell ratio of CD8+ T cells to Treg cells [2, 8]: significantly increased
proportion of PD-1-expressing CD8+ T cells [2, 8]: significantly fewer
proportion of CD8+ T cells in total live cells ([2]; lymph nodes, AE17 model): did not increase
Treg in the lymph nodes ([2]; lymph nodes, AE17 tumor-bearing mice): generally reduced
proportion of PD-1-expressing CD8+ T cells ([2]; spleens, AE17 model, compared to saline): significantly fewer
proportion of CD8+ T cells in total live cells ([2]; spleens, AE17 model): did not increase
proportion of PD-1-expressing CD8+ T cells [2, 9]: significantly fewer
proportions of Treg [2, 9]: significantly decreased
ratio of CD8+ T cells to Treg [2, 9]: increased
proportion of CD8+ T cells in total live cells ([2]; tumors, AE17 model): did not increase
mesothelin-specific IFN-γ expression in CD8+ T cells [3]: did not enhance
mesothelin-specific IFN-γ expression in CD8+ T cells ([4]; lymph node CD8+ T cells): did not enhance
mesothelin-specific IFN-γ expression in CD8+ T cells ([4]; splenic CD8+ T cells): did not enhance
conversion of Foxp3+ CD25− Treg into IL-2+ CD40L+ cells ([5]; anti-CD3/CD28 antibodies 1 μg/ml, P=0.0015): converted more
ratio of the proportion of CD25− cells to CD25+ cells in the Foxp3+ CD4+ population ([5]; anti-CD3/CD28 antibodies 1 μg/ml, P=0.0017): significantly increased
ratio of the proportion of CD25− cells to CD25+ cells in the Foxp3+ CD4+ population ([5]; no anti-CD3/CD28 stimulation): did not change
intratumoral Treg cells (ovarian cancer): selective reduction
survival (ovarian cancer): survival advantage
safety of long-term, low-dose treatment [6]: safety
